Question: Which solubility (mole fraction) (in n-decanol, 348.15 K) does the source give for `O=C[C@H](O)[C@@H](O)[C@H](O)[C@H](O)CO` here?
Answer: 0.000902

Question: And the solubility (mole fraction) (in n-decanol, 353.15 K)?
Answer: 0.000984

Question: What about the solubility (mole fraction) (in n-decanol, 357.15 K) of the same compound?
Answer: 0.00119

Question: And the solubility (mole fraction) (in n-decanol, 367.15 K)?
Answer: 0.00154

Question: And the solubility (mole fraction) (in n-decanol, 372.15 K)?
Answer: 0.00178

Question: What about the solubility (mole fraction) (in n-decanol, 377.15 K) of the same compound?
Answer: 0.00204

Question: And the solubility (mole fraction) (in n-decanol, 382.15 K)?
Answer: 0.00239

Question: What about the solubility (mole fraction) (in n-decanol, 387.15 K) of the same compound?
Answer: 0.00264

Question: And the solubility (mole fraction) (in n-decanol, 392.15 K)?
Answer: 0.00327

Question: And the solubility (mole fraction) (in n-dodecanol, 349.15 K)?
Answer: 0.000762

Question: What about the solubility (mole fraction) (in n-dodecanol, 355.15 K) of the same compound?
Answer: 0.000802

Question: What about the solubility (mole fraction) (in n-dodecanol, 360.15 K) of the same compound?
Answer: 0.000865

Question: What about the solubility (mole fraction) (in n-dodecanol, 365.15 K) of the same compound?
Answer: 0.0011

Question: And the solubility (mole fraction) (in n-dodecanol, 370.15 K)?
Answer: 0.0013

Question: And the solubility (mole fraction) (in n-dodecanol, 375.15 K)?
Answer: 0.0014

Question: And the solubility (mole fraction) (in n-dodecanol, 382.15 K)?
Answer: 0.00156

Question: What about the solubility (mole fraction) (in n-dodecanol, 387.15 K) of the same compound?
Answer: 0.00186

Question: And the solubility (mole fraction) (in n-dodecanol, 393.15 K)?
Answer: 0.00203

Question: And the solubility (mole fraction) (in n-octanol, 345.15 K)?
Answer: 0.00098

Question: And the solubility (mole fraction) (in n-octanol, 355.15 K)?
Answer: 0.00153

Question: And the solubility (mole fraction) (in n-octanol, 364.15 K)?
Answer: 0.00192

Question: And the solubility (mole fraction) (in n-octanol, 369.15 K)?
Answer: 0.00228

Question: What about the solubility (mole fraction) (in n-octanol, 374.15 K) of the same compound?
Answer: 0.00241

Question: And the solubility (mole fraction) (in n-octanol, 379.15 K)?
Answer: 0.0029

Question: And the solubility (mole fraction) (in n-octanol, 383.15 K)?
Answer: 0.00341

Source: BigSolDB 2.1
